Assay results: US7030273B1, “Compounds with physiological cooling effect” (Qaroma, Inc, priority 2005, dated 2006)

What was measured:
[1] = tested on: cold receptors of the skin and mucous membranes of the human body; assay: Panel test of physiological cooling ability against WS-23, solutions applied orally; assay type: in vivo; set-up: key: + means the compound has equal or stronger cooling effect than WS-23; conditions: 2000 ppm solution applied orally; panel of 5 people
Method: The following testing procedure is aimed at determining physiological cooling ability of testing compounds with regard to WS-23 ([…]). The tests are carried out on a selected panel of 5 people. The present test procedure is done on a statistical basis because sensitivity to cooling compounds will vary not only from compound to compound and from one part of the body to another, but from one individual to another as well. Tests of this nature are commonly used on the testing and quality control of the organoleptic properties, e.g. taste, smell of organic and inorganic food products.
1 g of each testing compound is dissolved in 99 g denatured ethanol to form 1% solution. 2 g such solution is then diluted with 8 g deionized water to form 2000 ppm solution. The solutions are then applied orally to determine the cooling effect.
To test the cooling activity of the compounds in this invention, the compounds prepared in this invention are tested repeatedly by the 5 selected panelists and the results are compared with WS-23.

[2] = tested on: tongue; assay: Toothpicks soaked in compound solution, put on tongue; assay type: in vivo, human; conditions: toothpick tips soaked in 5% solution in denatured ethanol, dried
Description: Toothpick tips were soaked in 5% solution of Compound 3 in this invention in denatured ethanol for long enough to have enough deposition of the compound. The picks were then dried.

[3] = tested on: mouth; assay: Mint candies containing the compound, cooling effect in the mouth; assay type: in vivo, human; conditions: 0.02% in icing sugar candies
Method: Icing sugar was mixed with small amount of water at 50° C. to form a paste. 0.02% Compound 5 in this invention was added and stirred. Cooled to room temperature, the mixture hardened and was broken into smaller pieces.

| Structure (SMILES) | melting point | Cooling ability compared to WS-23 [1] | cooling sensation on tongue [2] | cooling effect in the mouth [3] |
| --- | --- | --- | --- | --- |
| CCOCCNC(=O)C(C)(C(C)C)C(C)C [Compound 3, N-(2-ethoxyethyl)-2,3-dimethyl-2-isopropylbutyramide] |  | + | pronounced cooling sensation |  |
| CC(C)OCCCNC(=O)C(C)(C(C)C)C(C)C [Compound 7, N-(3-isopropoxypropyl)-2,3-dimethyl-2-isopropylbutyramide] | 32 °C | + |  |  |
| CCCCOCCCNC(=O)C(C)(C(C)C)C(C)C [Compound 8, N-(3-butoxypropyl)-2,3-dimethyl-2-isopropylbutyramide] | 40 °C | + |  |  |

Further lines, with some results ahead:

| melting point | Structure (SMILES) | Cooling ability compared to WS-23 [1] | cooling sensation on tongue [2] | cooling effect in the mouth [3] |
| --- | --- | --- | --- | --- |
| 10 °C | COCCCNC(=O)C(C)(C(C)C)C(C)C [Compound 5, N-(3-methoxypropyl)-2,3-dimethyl-2-isopropylbutyramide] | + |  | marked cooling effect in the mouth |
| 30 °C | CCOCCCNC(=O)C(C)(C(C)C)C(C)C [Compound 6, N-(3-ethoxypropyl)-2,3-dimethyl-2-isopropylbutyramide] | + |  |  |
